Test results as given in ChEMBL document CHEMBL1156757, “Dihydroxyphenylisoindoline amides as orally bioavailable inhibitors of the heat shock protein 90 (hsp90) molecular chaperone” (J Med Chem, 2010).

Columns and labels:
Liver microsomes [1] = experiment: Hepatic clearance in human liver microsomes […]; type: ADME, Microsome
Heat shock protein HSP90 = Heat shock protein HSP90 (Homo sapiens, UniProt P07900+P08238)
[2] = AUC (0 to infinity) in rat at 2.5 mg/kg, iv; type: ADME, organism-based; design: time infinity, dose 2.5 mg/kg, route intravenous; details: plasma
[3] = Half life in mouse at 20 mg/kg, iv; type: ADME, organism-based; design: dose 20 mg/kg, route intravenous; details: in vivo
[4] = Oral bioavailability in rat; type: ADME, organism-based; details: in vivo
Mus musculus [5] = experiment: Free plasma concentration in mouse at 100 mg/kg, ip after 4 hrs; type: ADME, organism-based; design: dose 100 mg/kg, route intraperitoneal; details: in vivo
Liver microsomes [6] = experiment: Hepatic clearance in rat liver microsomes […]; type: ADME, Microsome
Mus musculus [7] = experiment: Free plasma concentration in mouse at 100 mg/kg, po after 1 hr; type: ADME, organism-based; design: dose 100 mg/kg, route oral; details: in vivo
Mus musculus [8] = experiment: Free plasma concentration in mouse at 100 mg/kg, po after 4 hrs; type: ADME, organism-based; design: dose 100 mg/kg, route oral; details: in vivo
Mus musculus [9] = experiment: Free plasma concentration in mouse at 100 mg/kg, ip after 1 hr; type: ADME, organism-based; design: dose 100 mg/kg, route intraperitoneal; details: in vivo
[10] = AUC (0 to infinity) in rat at 10 mg/kg, po; type: ADME, organism-based; design: time infinity, dose 10 mg/kg, route oral; details: plasma
[11] = Clearance in rat; type: ADME, organism-based; details: in vivo
Mus musculus [12] = experiment: Free plasma concentration in mouse at 20 mg/kg, iv after 4 hrs; type: ADME, organism-based; design: dose 20 mg/kg, route intravenous; details: in vivo
[13] = Half life in rat; type: ADME, organism-based; details: in vivo
[14] = Half life in mouse at 100 mg/kg, po; type: ADME, organism-based; design: dose 100 mg/kg, route oral; details: in vivo
Mus musculus [15] = experiment: Free plasma concentration in mouse at 20 mg/kg, iv after 1 hr; type: ADME, organism-based; design: dose 20 mg/kg, route intravenous; details: in vivo
[16] = Volume of distribution in rat; type: ADME, organism-based; details: in vivo

SMILES	CLH (Liver microsomes [1]) [µL/min]	IC50 (Heat shock protein HSP90) [µM]	also measured
C=CCNC(=O)C1c2ccccc2CN1C(=O)c1cc(Cl)c(O)cc1O (stereo unspecified)	8.5	1.5	–
CO[C@H]1/C=C\C=C(/C)C(=O)NC2=CC(=O)C(NCCN(C)C)=C(C[C@@H](C)C[C@H](OC)[C@H](O)[C@@H](C)/C=C(\C)[C@@H]1OC(N)=O)C2=O [ALVESPIMYCIN]	< 3	–	–
CN(C)C(=O)C1c2ccccc2CN1C(=O)c1cc(Cl)c(O)cc1O (stereo unspecified)	2.4	1.5	–
O=C(c1cc(Cl)c(O)cc1O)N1CCCC1	56	–	–
CCNC(=O)C1c2ccccc2CN1C(=O)c1cc(Cl)c(O)cc1O (stereo unspecified)	4.7	0.3	–
CNC(=O)C1c2ccccc2CN1C(=O)c1cc(Cl)c(O)cc1O (stereo unspecified)	< 2	1.7	–

Further lines, with some results ahead:

CLH (Liver microsomes [1]) [µL/min]	IC50 (Heat shock protein HSP90) [µM]	SMILES	also measured
< 9	–	O=C([C@H]1CCCN1C(=O)c1cc(Cl)c(O)cc1O)N1CCCC1	–
9	–	CCCNC(=O)C1c2ccccc2CN1C(=O)c1cc(Cl)c(O)cc1O (stereo unspecified)	–
7	0.3	CCNC(=O)[C@H]1c2ccccc2CN1C(=O)c1cc(Cl)c(O)cc1O	AUC(0-inf) [2]: 1.7 µg·h/mL; half-life [3]: 5.2 h; bioavailability [4]: 20%; Cp(f) (Mus musculus [5]): 0.41 µM; CLH (Liver microsomes [6]): 0.2 µL/min; Cp(f) (Mus musculus [7]): 0.81 µM; Cp(f) (Mus musculus [8]): 0.33 µM; Cp(f) (Mus musculus [9]): 16 µM; AUC(0-inf) [10]: 1.3 µg·h/mL; clearance [11]: 1.4 L/h/kg; Cp(f) (Mus musculus [12]): 0.076 µM; half-life [13]: 5.2 h; half-life [14]: 8.3 h; Cp(f) (Mus musculus [15]): 0.286 µM; Vd [16]: 3.3 L/kg
25	0.7	O=C(NCc1ccccc1)C1c2ccccc2CN1C(=O)c1cc(Cl)c(O)cc1O (stereo unspecified)	–
11	0.6	O=C([C@H]1c2ccccc2CN1C(=O)c1cc(Cl)c(O)cc1O)N1CCCC1	AUC(0-inf) [2]: 2.1 µg·h/mL; bioavailability [4]: 35%; CLH (Liver microsomes [6]): 0.2 µL/min; AUC(0-inf) [10]: 2.9 µg·h/mL; clearance [11]: 1.4 L/h/kg; half-life [13]: 7.9 h; Vd [16]: 8.1 L/kg
9	–	O=C(NC1CCCCC1)[C@H]1CCCN1C(=O)c1cc(Cl)c(O)cc1O	–
129	1	Cc1ccccc1[C@H]1CCCN1C(=O)c1cc(Cl)c(O)cc1O	–
< 7	–	CN(C)C(=O)[C@H]1CCCN1C(=O)c1cc(Cl)c(O)cc1O	–
2	0.6	O=C(C1c2ccccc2CN1C(=O)c1cc(Cl)c(O)cc1O)N1CCCC1 (stereo unspecified)	–
